Test results reported in patent US20200113920A1, “COMPOSITIONS AND METHODS FOR TREATMENT OF MICROSPORIDIA INFECTION USING PROTEASOME INHIBITORS INCLUDING IXAZOMIB” (BARNARD COLLEGE, priority 2018, published 2020).
Counter-ions that a name gives are not always drawn. Non-standard residues stand in square brackets, D forms with d. Residues, ends and D or L forms follow the SMILES beside them. ξ: configuration not given here. *: point of attachment. Cbz = O=C(OCc1ccccc1)*; ξL = CC(C)CC(N)C(=O)O

Legend:
honey bees = experiment: Honey bee survival during drug feeding; format: in vivo, Apis mellifera; conditions: 40 μM in sucrose solution for 10 days starting day 3 post-eclosion, newly emerged bees
Description: To assess the impact of ixazomib treatment on age-matched honey bees, newly emerged bees were fed sucrose solution containing ixazomib, ixazomib citrate, Fumagillin (all at 40 μM), or vehicle alone for 10 days starting on day 3 post-eclosion.

N. ceranae [1] = experiment: N. ceranae infection intensity in experimentally infected honey bees fed drug in sucrose syrup; format: in vivo, Nosema ceranae
Description: that works by reacting with the β5 subunit responsible for chymotrypsin-like activity (Goldberg, 2012). After experimentally infecting bees, infected bees were fed sucrose syrup or sucrose syrup containing 500 μM MG132 for 2 days starting on day 6 post infection. On day 8 post infection, spore levels were then measured using light microscopy to determine the effects of proteasome inhibition on N. ceranae infection intensity. […] MG132 is a poorly bioavailable proteasome inhibitor with known toxicity in multicellular eukaryotes. […] Significant effort has been directed towards finding novel strategies for targeting the proteasome (Goldberg, 2012; Śledź and Baumeister, 2016; Cromm and Crews, 2017), providing a number of pharmacologic agents with better efficacy, improved bioavailability, and increased selectivity. We first tested the ability of ixazomib, a modified peptide boronic acid that binds the β5 site of the 20 S proteasome and inhibits proteasome activity (Kupperman et al. 2010), to reduce N. ceranae infection in honey bees. Ixazomib is commercially available (e.g., from Selleck Chemincals) and has the structure of […]

N. ceranae [2] = experiment: N. ceranae infection in newly eclosed, experimentally infected honey bees fed proteasome inhibitors (spore counting and quantitative PCR); format: in vivo, Nosema ceranae; conditions: for infection intensity after cessation of treatment (rebound): four days treatment, then sucrose solution alone for 4 days, spore counting and DNA; for efficacy against N. ceranae infection relative to Fumagillin: feeding bees during N. ceranae infection
Text: To standardize experiments by using age-matched bees and to allow for longer treatment periods, we used newly enclosed bees and tested the effects of a number of commercially available proteasome inhibitors, including Ixazomib (MLN2238) (purchased from Selleck Chemicals), Ixazomib citrate (MLN9708) (purchased from Selleck Chemicals), Oprozomib (ONX 0912) (purchased from Selleck Chemicals), Dexazomib (purchased from Selleck Chemicals), Carfilzomib (purchased from Selleck Chemicals), Bortezomib (purchased from Selleck Chemicals), Epoxomicin (purchased from Selleck Chemicals), HMB-Val-Ser-Leu-VE (purchased from Cayman Chemical), MG-262 (purchased from APExBIO), and the two stereoisomers of MG132 (S and R) (purchased from Cayman Chemical) as well as Fumagillin (purchased from Selleck Chemicals). On day two post-eclosion, N. ceranae spores (5×10^6 ml) were fed to bees in sucrose solution ad libitum (Fries et al. 2013) for 48 hours. At 3 days post infection, honey bees in individual cages were fed sucrose solution containing one of the pharmacologic agents at 40 μM or vehicle control alone. For each trial, we tested pairs of novel compounds simultaneously with an untreated group, a Fumagillin treated group, and an Ixazomib-treated group. After 4 days of drug feeding, honey bee midguts were dissected, and infection levels were assessed by spore counting and quantitative PCR.
We focused on ixazomib and ixazomib citrate for further experiments. Again using newly eclosed bees, we treated infected bees for up to eight days with ixazomib, Fumagillin, or sucrose solution alone, and measured infection level by spore counting and DNA on days 4 and 8 post initiation of treatment (FIGS. 4A and 4B). […] Finally, the goal was to determine whether any rebound of N. ceranae infection was observed after cessation of treatment by ixazomib and ixazomib citrate as has been reported for Fumagillin (Huang et al. 2013). Infected newly eclosed bees were treated with sucrose solution containing ixazomib, ixazomib citrate, Fumagillin, or vehicle alone for four days. We then switched all cages to sucrose solution alone for 4 days and then measured infection level by spore counting and DNA. We observed that infection intensity stayed the same for bees receiving sucrose solution for the whole experiment, increased for those bees treated with Fumagillin first, and decreased for those bees fed either ixazomib or ixazomib citrate first (FIGS. 4E and 4F).

Encephalitozoon hellem = experiment: E. hellem infection of RK-13 cells, qPCR-based assay of pathogen and host cell genome equivalents; conditions: four-day infection of RK-13 cells
Text: (§1) Thus, it was hypothesized that pharmacological inhibition of the UPS will reduce infection intensity of diverse microsporidia in their respective host species. To test this hypothesis, we chose to focus on Encephalitozoon hellem, a microsporidia species first described as the cause of keratoconjunctivitis in 3 AIDS patients in 1991 (Didier et al. 1991) and subsequently observed in numerous immunocompromised patients (Weiss and Becnel, 2014). The genome of E. hellem has been sequenced (Pombert et al. 2012) and it is easily culturable (Molestina et al. 2014), making it ideal for such studies.

N. ceranae [3] = experiment: N. ceranae infection in naturally infected bees from a highly infected colony; format: in vivo, Nosema ceranae; conditions: bees from a highly infected colony (prevalence>90% infected); fed 2 days vs DMSO vehicle control
[4] = tested on: rabbit kidney cell line (RK-13) cells; experiment: Rabbit cell numbers in E. hellem-infected RK-13 culture; format: cell-based; conditions: 10-100 nM ixazomib; four-day infection of RK-13 cells
Text: as §1

With CO[C@@H]1[C@H](OC(=O)/C=C/C=C/C=C/C=C/C(=O)O)CC[C@]2(CO2)[C@H]1[C@@]1(C)O[C@@H]1CC=C(C)C [Fumagillin] the honey bee survival (honey bees) was “no differences in the survival between treatments”, the “N. ceranae infection intensity, Fumagillin compared with MG132” value (N. ceranae [1]; two days of feeding Fumagillin, data not shown) was “similar” and the “infection intensity after cessation of treatment (rebound)” value (N. ceranae [2]) was “increased”. The “E. hellem infection intensity, Fumagillin compared with ixazomib” value (Encephalitozoon hellem; 50 ng/ml Fumagillin) was “comparable”.
In the case of CCOC(=O)/C=C/[C@H](CC(C)C)NC(=O)[C@H](CO)NC(=O)[C@@H](NC(=O)c1cccc(O)c1C)C(C)C [HMB-Val-Ser-Leu-VE], the “infection level by relative genome equivalents” value (N. ceranae [2]; 40 μM in sucrose solution, from 3 days post infection, 4 days of drug feeding, midguts, quantitative PCR) is reported as “all tested proteasome inhibitors except HMB-Val-Ser-Leu-VE”.
With CC(C)C[C@H](NC(=O)CNC(=O)c1cc(Cl)ccc1Cl)B1OC(=O)C(CC(=O)O)(CC(=O)O)O1 [Ixazomib citrate] the honey bee survival (honey bees) was “no differences in the survival between treatments”.
With CC(C)C[C@H](NC(=O)CNC(=O)c1cc(Cl)ccc1Cl)B(O)O [Ixazomib] the “N. ceranae infection by both spore-counting and DNA analysis” value (N. ceranae [3]) was “striking reduction”, the honey bee survival (honey bees) was “no differences in the survival between treatments” and the “N. ceranae infection intensity by spore counting and DNA analysis” value (N. ceranae [2]; 2.5 μM) was “diminished, but still robust, reduction in infection intensity”. The “impact on N. ceranae infection levels (ranking among tested inhibitors)” value (N. ceranae [2]; 40 μM, 4 days of drug feeding, spore counting and quantitative PCR) was “most effective at reducing infection levels”, the “efficacy against N. ceranae infection relative to Fumagillin” value (N. ceranae [2]) was “better efficacy than Fumagillin” and the “infection intensity after cessation of treatment (rebound)” value (N. ceranae [2]) was “decreased”. For the same compound, the “N. ceranae infection level, dose and time dependence” value (N. ceranae [2]; treated up to eight days, measured days 4 and 8, spore counting and DNA analysis (FIGS. 4A-4F)) was “stably reduces N. ceranae infection level in a dose and time dependent manner”, the rabbit cell numbers [4] was “without substantial reduction in rabbit cell numbers” and the “E. hellem infection intensity” value (Encephalitozoon hellem; 10-100 nM ixazomib, preliminary results) was “reduces E. hellem infection intensity”.
For CC(C)CC(NC(=O)[C@H](CC(C)C)NC(=O)OCc1ccccc1)C(=O)N[C@H](C=O)CC(C)C (stereo partly drawn) [MG132] (Cbz-Leu-[ξL]-Leu-aldehyde), the “N. ceranae infection intensity (spore levels by light microscopy)” value (N. ceranae [1]; experimentally infected bees, 500 μM MG132 in sucrose syrup for 2 days (48 hours) from day 6 post infection, measured day 8) was “dramatic reduction in infection intensity” and the “efficacy against N. ceranae infection relative to Fumagillin” value (N. ceranae [2]) was “not as efficacious as Fumagillin”.
